One assay has as its system A. baumannii 1258916. In words: microbe, parasite or virus in culture. The following applies: Acinetobacter baumannii, 1258916, read-out: MIC, A. baumannii 1258916. It is filed as cell-based, Acinetobacter baumannii.
In assay [1] the test system is B. thailandensis ATCC 700388. In words: microbe, parasite or virus in culture. It is filed as cell-based. The note with it: Burkholderia thailandensis, ATCC700388, read-out: Minimum inhibitory concentration (MIC), B. thailandensis ATCC 700388.
The next assay deals with P. aeruginosa CDC-0090. In words: microbe, parasite or virus in culture. The following applies: Pseudomonas aeruginosa, CDC0090, read-out: Minimum inhibitory concentration, P. aeruginosa CDC-0090. It counts as cell-based.
For a further assay, the system named is P. aeruginosa CDC-0110. In words: microbe, parasite or virus in culture. It is filed as cell-based. The note with it: Pseudomonas aeruginosa, CDC0110, read-out: Minimum inhibitory concentration, P. aeruginosa CDC-0110.
For the next assay, the system named is A. baumannii CDC-0036. In words: microbe, parasite or virus in culture. It counts as cell-based. The note with it: Acinetobacter baumannii, CDC0036, read-out: MIC, A. baumannii CDC-0036.
Assay [2] has as its system P. aeruginosa (ΔmexAB-oprM). In words: Broth microdilution MIC in iron-depleted CAMHB (IDM). It is filed as cell-based. The note with it: Pseudomonas aeruginosa; iron-depleted CAMHB (IDM); […]; read-out: Minimum inhibitory concentration, P. aeruginosa ΔmexAB-oprM.
The target in assay [3] is T1, PBP3 from Pseudomonas aeruginosa (PAO1) (Pseudomonas aeruginosa, UniProt G3XD46).
T1 construct: made in house
T1 sequence (G3XD46 whole entry): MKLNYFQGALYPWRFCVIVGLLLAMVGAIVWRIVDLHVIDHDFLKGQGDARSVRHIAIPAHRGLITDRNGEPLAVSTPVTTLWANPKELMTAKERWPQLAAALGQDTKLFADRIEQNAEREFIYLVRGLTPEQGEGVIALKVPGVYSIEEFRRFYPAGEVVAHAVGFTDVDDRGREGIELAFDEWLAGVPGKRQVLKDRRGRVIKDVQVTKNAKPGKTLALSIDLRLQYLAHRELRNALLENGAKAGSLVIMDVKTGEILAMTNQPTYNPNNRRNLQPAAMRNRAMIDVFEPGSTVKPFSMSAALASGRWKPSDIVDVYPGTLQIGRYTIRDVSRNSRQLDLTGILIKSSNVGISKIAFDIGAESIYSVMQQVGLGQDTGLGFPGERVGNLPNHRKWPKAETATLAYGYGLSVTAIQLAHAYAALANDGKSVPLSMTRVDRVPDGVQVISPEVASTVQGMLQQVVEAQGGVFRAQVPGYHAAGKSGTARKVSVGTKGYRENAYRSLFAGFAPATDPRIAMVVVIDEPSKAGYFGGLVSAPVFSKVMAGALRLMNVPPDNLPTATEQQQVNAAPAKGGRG
In words: Bocillin-FL fluorescence polarization competition binding, P. aeruginosa PBP3. The note with it: for IC50: Binding affinity to P. aeruginosa PBP3, fluorescence polarization competition binding assay using Bocillin-FL, read-out: P. aeruginosa PBP3 Potency. The source says: (§1) To determine the ability of boronic acid-based test PBP inhibitors to bind Penicillin Binding Proteins (PBPs), Bocillin-FL (fluorescently-labeled penicillin V; ThermoFisher Scientific) was used in a fluorescence polarization (FP) competition binding assay to assess inhibitor binding to PBP3 from Escherichia coli (K-12), PBP3 from Pseudomonas aeruginosa (PAO1), PBP1a and PBP3 from Acinetobacter baumannii (ATCC 19606), and PBP2 from Neisseria gonorrhoeae (FA19). PBPs were cloned and purified as described previously (E. coli PBP3, King, D. T, et al., ACS Infectious Diseases 2015, 1, 175-184; P. aeruginosa PBP3, Han et. al., PNAS 2010, 107 (51), 22002-22007; A. baumannii PBPs, Penwell et. al., Antimicrob. Agents Chemother. 2015, 59 (3), 1680-1689; N. gonorrhoeae PBP2, Singh et. al., J. Biol. Chem. 2019, 294 (38), 14020-14032). To establish assay conditions for competition binding, enzyme titration/saturation binding experiments were initially performed. Bocillin-FL was prepared at 0.2 μM in a buffer comprised of 50 mM Hepes (pH 8.0), 300 mM NaCl and 10% (v/v) glycerol for reactions with E. coli, P. aeruginosa and N. gonorrhoeae PBPs, and 25 mM Tris (pH 8.0), 200 mM NaCl, 10% (v/v) glycerol and 0.005% (v/v) Tween 20 for reactions with A. baumannii PBPs. Saturation binding was performed by mixing 40 μl of PBP solutions ranging in concentrations from 0-24 μM with 40 μl of the 0.2 μM Bocillin-FL solution, in individual wells of a black 384-well microplate. FP was measured immediately upon mixing (Excitation, 490 nm; Emission, 520 nm; g-factor, 0.96), using a Cytation3 (BioTek) microplate reader and measured continuously for up to 120 minutes. The FP response stabilized after 15 minutes for P. aeruginosa and A. baumannii PBP3, 30 minutes for E. coli PBP3 and A. baumannii PBP1a, and less than 1 minute for N. gonorrhoeae PBP2. […] The competition binding assay (80 μl final volume) was validated using beta-lactams and PBPs at final concentrations of: 1.5 μM for E. coli PBP3; 0.75 μM for P. aeruginosa PBP3; 1 μM for A. baumannii PBP1a; 0.2 μM for A. baumannii PBP3; and 0.25 μM for N. gonorrhoeae PBP2. Bocillin-FL was at 0.1 μM (0.05 μM with A. baumannii PBP1a) and beta-lactam concentrations ranged from 0-1,000 μM. E. coli PBP3 was incubated with increasing concentrations of ampicillin in a black 384-well microplate (Corning) for 30 minutes. P. aeruginosa PBP3 was incubated for 15 minutes with aztreonam, whereas A. baumannii PBP1a and PBP3 were incubated for 15 minutes with meropenem, and then Bocillin-FL was added followed immediately by the FP measurement for up to 60 minutes. […] The beta-lactam potency was reported as the concentration of beta-lactam required to reduce the amount of PBP bound-Bocillin-FL by 50% (EC50). […] The EC50 of aztreonam was determined to be <0.5 μM for P. aeruginosa PBP3. […] Binding assays for boronic acid PBP inhibitors were performed in an identical fashion for the respective PBPs.

Another assay concerns P. aeruginosa ATCC 27853. In words: microbe, parasite or virus in culture. It counts as cell-based. The following applies: Pseudomonas aeruginosa, ATCC27853, read-out: Minimum inhibitory concentration, P. aeruginosa ATCC 27853.
The subject of a further assay is P. aeruginosa CDC-0095. In words: microbe, parasite or virus in culture. The note with it: Pseudomonas aeruginosa, CDC0095, read-out: Minimum inhibitory concentration, P. aeruginosa CDC-0095. It is filed as cell-based.
A further assay deals with P. aeruginosa CDC-0054. Briefly: microbe, parasite or virus in culture. It is filed as cell-based. The note with it: Pseudomonas aeruginosa, CDC0054, read-out: Minimum inhibitory concentration, P. aeruginosa CDC-0054.
The test system of a further assay is P. aeruginosa ATCC 35151. In words: microbe, parasite or virus in culture. It counts as cell-based. The note with it: Pseudomonas aeruginosa, ATCC35151, read-out: Minimum inhibitory concentration, P. aeruginosa ATCC 35151.
The next assay deals with A. baumannii ATCC 19606. Briefly: microbe, parasite or virus in culture. It counts as cell-based. The note with it: Acinetobacter baumannii, ATCC19606, read-out: MIC, A. baumannii ATCC 19606.
The test system of another assay is A. baumannii CDC-0045. Briefly: microbe, parasite or virus in culture. It is filed as cell-based. The following applies: Acinetobacter baumannii, CDC0045, read-out: MIC, A. baumannii CDC-0045.
Assay [4] addresses T2, PBP3 from Acinetobacter baumannii (ATCC 19606) (Acinetobacter baumannii, UniProt A0ABX6CK25).
T2 sequence (A0ABX6CK25 64-610): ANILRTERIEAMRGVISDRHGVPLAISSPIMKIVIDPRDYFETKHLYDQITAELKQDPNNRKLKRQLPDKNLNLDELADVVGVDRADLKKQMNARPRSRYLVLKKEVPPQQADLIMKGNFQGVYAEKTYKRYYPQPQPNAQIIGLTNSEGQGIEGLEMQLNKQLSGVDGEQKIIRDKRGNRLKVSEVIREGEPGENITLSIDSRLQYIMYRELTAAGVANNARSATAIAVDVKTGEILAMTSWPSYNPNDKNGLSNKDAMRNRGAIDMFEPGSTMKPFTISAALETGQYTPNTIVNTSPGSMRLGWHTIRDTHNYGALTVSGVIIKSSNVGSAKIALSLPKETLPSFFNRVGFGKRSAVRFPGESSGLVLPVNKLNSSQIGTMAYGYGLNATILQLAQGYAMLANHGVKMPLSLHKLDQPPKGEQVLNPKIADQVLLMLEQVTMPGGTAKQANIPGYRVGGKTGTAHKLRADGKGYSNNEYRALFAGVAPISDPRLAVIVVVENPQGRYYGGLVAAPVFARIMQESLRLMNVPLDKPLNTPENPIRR
Briefly: Bocillin-FL fluorescence polarization competition binding, A. baumannii PBP3. The following applies: fluorescence polarization competition binding assay using Bocillin-FL; read-out: A. baumannii PBP3 Potency.
Source text: as §1

The next assay deals with A. baumannii CDC-0033. Briefly: microbe, parasite or virus in culture. It is filed as cell-based. The note with it: Acinetobacter baumannii, CDC0033, read-out: MIC, A. baumannii CDC-0033.
The test system of assay [5] is B. humptydooensis ATCC BAA-2767. In words: microbe, parasite or virus in culture. It is filed as cell-based. The following applies: Burkholderia humptydooensis, ATCCBAA2767, read-out: Minimum inhibitory concentration (MIC), B. humptydooensis ATCC BAA-2767.
The next assay has as its system A. baumannii ATCC 17978. In words: microbe, parasite or virus in culture. The following applies: Acinetobacter baumannii, ATCC17978, read-out: MIC, A. baumannii ATCC 17978. It counts as cell-based.

Molecules are shown by their SMILES. In brackets after ≈: the same amount, converted by molar mass. Bounds are passed on as bounds.

For `O=C(O)c1c(F)ccc2c1OB(O)[C@@H](NC(=O)[C@@H](NC(=O)N1CCN(Cc3ccc(O)c(O)c3Cl)C(=O)C1=O)c1cccc(P(=O)(O)O)c1)C2` (single isomer, unassigned) [Example 162], the MIC with A. baumannii 1258916 was 32 to 64 µg/mL (≈ 43.6 to 87.1 µM); in assay [1], 8 to 16 µg/mL (≈ 10.9 to 21.8 µM); in the assay on P. aeruginosa CDC-0090, 2 to 4 µg/mL (≈ 2.72 to 5.44 µM); in the assay on P. aeruginosa CDC-0110, 2 to 4 µg/mL (≈ 2.72 to 5.44 µM); in the assay with A. baumannii CDC-0036, more than 128 µg/mL; in assay [2], 2 to 4 µg/mL (≈ 2.72 to 5.44 µM). For the same molecule, the MIC in the assay with P. aeruginosa ATCC 27853 is 2 to 4 µg/mL (≈ 2.72 to 5.44 µM); in the assay with P. aeruginosa CDC-0095, 8 to 16 µg/mL (≈ 10.9 to 21.8 µM); with P. aeruginosa CDC-0054, 2 to 4 µg/mL (≈ 2.72 to 5.44 µM); in the assay on P. aeruginosa ATCC 35151, less than 1 µg/mL; in the assay with A. baumannii ATCC 19606, less than 1 µg/mL; with A. baumannii CDC-0045, more than 128 µg/mL. The MIC in the assay on A. baumannii CDC-0033 is more than 128 µg/mL; in [5] it was less than 1 µg/mL; with A. baumannii ATCC 17978 it was less than 1 µg/mL. For the same molecule, the IC50 in assay [3] was 10 to 50 µM; in assay [4], less than 10 µM.
Take `O=C(O)c1c(F)ccc2c1OB(O)[C@@H](NC(=O)[C@@H](NC(=O)N1CCN(Cc3ccc(O)c(O)c3Cl)C(=O)C1=O)c1ccc(P(=O)(O)O)c(F)c1F)C2` [Example 165, (R)-3-((S)-2-(4-(2-chloro-3,4-dihydroxybenzyl)-2,3-dioxopiperazine-1-carboxamido)-2-(2,3-difluoro-4-phosphonophenyl)acetamido)-7-fluoro-2-hydroxy-3,4-dihydro-2H-benzo[e][1,2]oxaborinine-8-carboxylic acid]: the MIC is 2 to 4 µg/mL (≈ 2.59 to 5.19 µM) in the assay with A. baumannii 1258916; less than 1 µg/mL in assay [1]; 2 to 4 µg/mL (≈ 2.59 to 5.19 µM) in the assay on P. aeruginosa CDC-0090; less than 1 µg/mL in the assay on P. aeruginosa CDC-0110; more than 128 µg/mL in the assay with A. baumannii CDC-0036; 2 to 4 µg/mL (≈ 2.59 to 5.19 µM) in assay [2]. The MIC is 2 to 4 µg/mL (≈ 2.59 to 5.19 µM) in the assay on P. aeruginosa ATCC 27853; less than 1 µg/mL with P. aeruginosa CDC-0095; less than 1 µg/mL with P. aeruginosa CDC-0054; less than 1 µg/mL in the assay with P. aeruginosa ATCC 35151; less than 1 µg/mL in the assay on A. baumannii ATCC 19606; less than 1 µg/mL with A. baumannii CDC-0045. Further, the values for the MIC (with A. baumannii CDC-0033; in assay [5]; with A. baumannii ATCC 17978) were 32 to 64 µg/mL (≈ 41.5 to 83 µM), less than 1 µg/mL and less than 1 µg/mL, respectively. Moreover, the IC50 in assay [3] is 10 to 50 µM; in assay [4], less than 10 µM.
Turning to `O=C(O)c1c(F)ccc2c1OB(O)[C@@H](NC(=O)C(NC(=O)N1CCN(C3CCN(C(=O)c4cncc(O)c4)CC3)C1=O)c1cc(F)c(O)c(O)c1Cl)C2` (stereo partly drawn) [Example 464, (3R)-3-(2-(2-chloro-5-fluoro-3,4-dihydroxyphenyl)-2-(3-(1-(5-hydroxynicotinoyl)piperidin-4-yl)-2-oxoimidazolidine-1-carboxamido)acetamido)-7-fluoro-2-hydroxy-3,4-dihydro-2H-benzo[e][1,2]oxaborinine-8-carboxylic acid], the IC50 in [3] and in assay [4] was less than 10 µM in each case.
Consider `O=C(O)c1c(F)ccc2c1OB(O)[C@@H](NC(=O)C(NC(=O)N1CCN(C3CCN(C(=O)c4cc[nH]c(=O)c4)CC3)C1=O)c1cc(F)c(O)c(O)c1Cl)C2` (stereo partly drawn) [Example 465, (3R)-3-(2-(2-chloro-5-fluoro-3,4-dihydroxyphenyl)-2-(2-oxo-3-(1-(2-oxo-1,2-dihydropyridine-4-carbonyl)piperidin-4-yl)imidazolidine-1-carboxamido)acetamido)-7-fluoro-2-hydroxy-3,4-dihydro-2H-benzo[e][1,2]oxaborinine-8-carboxylic acid], for which the IC50 in assay [3] and in [4] was less than 10 µM in each case.
On to `O=C(O)c1c(F)ccc2c1OB(O)[C@@H](NC(=O)C(NC(=O)N1CCN(C3CCN(C(=O)c4ccc5[nH]nnc5c4)CC3)C1=O)c1cc(F)c(O)c(O)c1Cl)C2` (stereo partly drawn) [Example 469, (3R)-3-(2-(3-(1-(1H-benzo[d][1,2,3]triazole-5-carbonyl)piperidin-4-yl)-2-oxoimidazolidine-1-carboxamido)-2-(2-chloro-5-fluoro-3,4-dihydroxyphenyl)acetamido)-7-fluoro-2-hydroxy-3,4-dihydro-2H-benzo[e][1,2]oxaborinine-8-carboxylic acid], for which the IC50 in assay [4] was less than 10 µM.
In turn, `C[C@H]1[C@H](NC(=O)/C(=N\OC(C)(C)C(=O)O)c2csc(N)n2)C(=O)N1S(=O)(=O)O` [aztreonam, reference compound] gave an EC50 in [3] (beta-lactam validation of FP competition assay, 15 minutes preincubation) of less than 0.5 µM.

These data come from patent US20240270762A1, “PENICILLIN-BINDING PROTEIN INHIBITORS” (priority 2021, published 2024).
